Measurements: US20110015162A1, “15,16-Methylene-17-hydroxy-19-nor-21-carboxylic acid-steroid Y-lactone derivative, use thereof and medicinal products containing the derivative” (Bayer Schering Pharma Aktiengesellschaft, priority 2007, published 2011)
Read-outs that look alike come from different tables or passages of the source.

Legend:
androgen receptor = molecular target: T1, androgen receptor (Homo sapiens, UniProt P10275); assay: Androgen receptor binding test; set-up: expressed in transfected cells
T1 sequence (P10275 1-920): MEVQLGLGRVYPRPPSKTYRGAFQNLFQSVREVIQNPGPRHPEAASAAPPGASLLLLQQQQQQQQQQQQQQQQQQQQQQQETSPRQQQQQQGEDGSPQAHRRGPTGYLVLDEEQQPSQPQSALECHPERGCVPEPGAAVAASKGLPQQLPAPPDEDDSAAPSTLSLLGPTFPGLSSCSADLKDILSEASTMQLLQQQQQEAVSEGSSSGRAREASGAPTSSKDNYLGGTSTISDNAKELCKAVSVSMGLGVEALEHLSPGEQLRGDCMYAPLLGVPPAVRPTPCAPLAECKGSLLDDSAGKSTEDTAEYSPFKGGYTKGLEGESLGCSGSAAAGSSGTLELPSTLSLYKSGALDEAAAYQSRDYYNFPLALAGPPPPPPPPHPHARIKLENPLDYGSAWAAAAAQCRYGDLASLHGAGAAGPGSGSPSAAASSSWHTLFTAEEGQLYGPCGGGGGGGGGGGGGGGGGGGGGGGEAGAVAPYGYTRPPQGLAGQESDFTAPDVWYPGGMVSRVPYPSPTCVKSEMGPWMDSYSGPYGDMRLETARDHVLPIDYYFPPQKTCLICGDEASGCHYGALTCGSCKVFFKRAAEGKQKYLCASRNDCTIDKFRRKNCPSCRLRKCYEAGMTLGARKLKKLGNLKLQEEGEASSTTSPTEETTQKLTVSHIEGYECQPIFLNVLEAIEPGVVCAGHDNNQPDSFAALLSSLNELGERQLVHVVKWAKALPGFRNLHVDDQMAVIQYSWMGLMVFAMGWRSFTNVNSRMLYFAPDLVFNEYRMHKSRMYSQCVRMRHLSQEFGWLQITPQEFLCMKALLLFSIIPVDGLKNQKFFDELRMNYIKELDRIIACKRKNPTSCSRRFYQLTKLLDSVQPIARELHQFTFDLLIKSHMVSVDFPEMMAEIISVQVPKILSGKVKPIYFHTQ
Method: Using cytosol from progesterone receptor-expressing insect cells (Hi5), competitive binding to the progesterone receptor was determined from the ability to displace ^3H-progesterone as reference substance from the receptor.
3. Androgen Receptor Binding Test: […]

[1] = molecular target: T2, fusion protein from the PR-ligand-binding domain and a Gal4-transactivation domain (Homo sapiens, UniProt P06401); assay: Progestational action by transactivation test (CHO K1 reporter cells); type: cell-based; conditions: for Emax: read-out: Progesterone receptor Agonism efficacy
T2 construct: expressed in transfected cells; host or cells: CHO K1 cells, stably transfected
Method: 4. Determination of Progestational Action by Means of Transactivation Tests:
The culture medium used for culture of the cells used for the assay was DMEM (Dulbecco's Modified Eagle Medium: […] glucose; PAA, #E15-009) with 10% FCS (Biochrom, S0115, batch #615B), 4 mM L-glutamine, 1% penicillin/streptomycin, 1 mg/ml G418 and 0.5 μg/ml puromycin.
Reporter cell lines (CHO K1 cells stably transfected with a fusion protein from the PR-ligand-binding domain and a Gal4-transactivation domain and a reporter construct, which contained luciferase under the control of a Gal4-responsive promoter) were seeded at a density of 4×10^4 cells per well in white, opaque tissue culture plates each with 96 wells (PerkinElmer, #P12-106-017) and kept in culture medium with 3% DCC-FCS (serum treated with activated charcoal to remove interfering components contained in the serum). The test compounds were added eight hours later, and the cells were incubated with the compounds for 16 hours. The tests were carried out in triplicate. At the end of incubation the medium containing the effector was removed and replaced with lysis buffer. After luciferase assay substrate (Promega, #E1501) had been added, the 96-well plates were then put in a microplate luminometer (Pherastar, BMG Labtech), and the luminescence was measured. The IC50 values were evaluated using software for calculating dose-effect relations.

[2] = reference substance 3H-testosterone, cytosol from AR-expressing insect cells (Hi5), read-out: Androgen receptor IC50
[3] = CHO K1 reporter cells, 16 hours incubation

T2 sequence (P06401 679-913 limits assumed): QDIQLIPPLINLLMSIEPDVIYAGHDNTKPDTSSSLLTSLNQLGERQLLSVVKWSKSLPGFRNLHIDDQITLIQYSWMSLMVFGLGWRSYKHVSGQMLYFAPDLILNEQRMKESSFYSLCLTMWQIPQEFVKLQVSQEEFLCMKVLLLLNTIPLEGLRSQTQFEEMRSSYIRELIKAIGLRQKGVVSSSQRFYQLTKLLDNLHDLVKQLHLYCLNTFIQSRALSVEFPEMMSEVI
T2 sequence (P04386 1-147 partner limits assumed): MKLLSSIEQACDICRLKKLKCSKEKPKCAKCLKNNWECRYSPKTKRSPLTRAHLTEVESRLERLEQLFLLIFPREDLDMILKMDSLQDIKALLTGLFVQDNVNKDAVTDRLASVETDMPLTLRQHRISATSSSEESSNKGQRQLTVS

Row | SMILES | IC50 (androgen receptor) [nM] | EC50 [1] [nM] | Emax ([1]; CHO-K1, 16 h) [%] | IC50 (androgen receptor; [2]) [nM] | Emax [1, 3] [%] | Progesterone receptor Agonism EC50 [1, 3] | EC50 ([1]; CHO K1 reporter cells, 16 hours incubation, read-out: Progesterone receptor Agonism EC50) [nM]
1 | CC[C@]12CC[C@H]3[C@@H]([C@H]4C[C@H]4C4=CC(=O)CC[C@@H]43)[C@@H]1[C@@H]1C[C@@H]1[C@@]21C=CC(=O)O1 [Example 1, 6β,7β;15β,16β-Bismethylene-17β-hydroxy-18-methyl-19-nor-17α-pregna-4,20(Z)-dien-3-one-21-carboxylic acid γ-lactone] | 280 | 1.5 | 62.8 | – | – | – | –
2 | CC[C@]12CC[C@H]3[C@@H]([C@@H]4C[C@@H]4C4=CC(=O)CC[C@@H]43)[C@@H]1[C@@H]1C[C@@H]1[C@@]21C=CC(=O)O1 [Example 2, 6α,7α;15β,16β-Bismethylene-17β-hydroxy-18-methyl-19-nor-17α-pregna-4,20(Z)-dien-3-one-21-carboxylic acid γ-lactone] | 450 | – | – | – | – | – | –
3 | CC[C@]12CC[C@H]3[C@@H](C=CC4=CC(=O)CC[C@@H]43)[C@@H]1[C@@H]1C[C@@H]1[C@@]21C=CC(=O)O1 [Example 3, 17β-Hydroxy-18-methyl-15β,16β-methylene-19-nor-17α-pregna-4,6,20(Z)-trien-3-one-21-carboxylic acid γ-lactone] | 1300 | 1.4 | 34.2 | – | – | – | –
4 | CC[C@]12CC[C@H]3[C@H]([C@@H]1[C@@H]1C[C@@H]1[C@@]21C=CC(=O)O1)[C@H](C)CC1=CC(=O)CC[C@@H]13 [Example 4A, 7α,18-Bismethyl-17β-hydroxy-15β,16β-methylene-19-nor-17α-pregna-4,20(Z)-dien-3-one-21-carboxylic acid γ-lactone] | 60 | 39 | 71.1 | – | – | – | –
5 | CC[C@@H]1CC2=CC(=O)CC[C@@H]2[C@H]2CC[C@@]3(CC)[C@@H]([C@@H]4C[C@@H]4[C@@]34C=CC(=O)O4)[C@H]12 [Example 5A, 17β-Hydroxy-7α-ethyl-18-methyl-15β,16β-methylene-19-nor-17α-pregna-4,20(Z)-dien-3-one-21-carboxylic acid γ-lactone] | 110 | 99 | 35.7 | – | – | – | –
6 | C=C[C@@H]1CC2=CC(=O)CC[C@@H]2[C@H]2CC[C@@]3(CC)[C@@H]([C@@H]4C[C@@H]4[C@@]34C=CC(=O)O4)[C@@H]21 [Example 6A, 17β-Hydroxy-7α-vinyl-18-methyl-15β,16β-methylene-19-nor-17α-pregna-4,20(Z)-dien-3-one-21-carboxylic acid γ-lactone] | 45 | 140 | 35.2 | – | – | – | –
7 | CC[C@]12CC[C@H]3[C@H]([C@@H]1[C@@H]1C[C@@H]1[C@@]21C=CC(=O)O1)[C@H](C1CC1)CC1=CC(=O)CC[C@@H]13 [Example 7A, 17β-Hydroxy-7α-cyclopropyl-18-methyl-15β,16β-methylene-19-nor-17α-pregna-4,20(Z)-dien-3-one-21-carboxylic acid γ-lactone] | 170 | – | 5 | – | – | – | –
8 | CC[C@]12CC[C@H]3[C@@H]([C@H]4C[C@H]4C4=C(Cl)C(=O)CC[C@@H]43)[C@@H]1[C@@H]1C[C@@H]1[C@@]21C=CC(=O)O1 [Example 8, 6β,7β;15β,16β-Bismethylene-4-chloro-17β-hydroxy-18-methyl-19-nor-17α-pregna-4,20(Z)-dien-3-one-21-carboxylic acid γ-lactone] | – | – | – | 4300 | 9.8 | – | –
9 | CC[C@]12CC[C@H]3[C@@H](CCC4=CC(=O)CC[C@@H]43)[C@@H]1[C@@H]1C[C@@H]1[C@@]21C=CC(=O)O1 [Example 9, 17β-Hydroxy-18-methyl-15β,16β-methylene-19-nor-17α-pregna-4,20(Z) dien-3-one-21-carboxylic acid γ-lactone] | – | 1.6 | 56 | – | – | – | –
10 | CC[C@]12CC[C@H]3[C@@H](C[C@@H](CO)C4=CC(=O)CC[C@@H]43)[C@@H]1[C@@H]1C[C@@H]1[C@@]21C=CC(=O)O1 [Example 10, 17β-Hydroxy-6β-hydroxymethylene-18-methyl-15β,16β-methylene-19-nor-17α-pregna-4,20(Z)-dien-3-one-21-carboxylic acid γ-lactone] | – | – | – | 1000 | – | inactive | –
11 | C[C@]12CC[C@H]3[C@@H](CCC4=CC(=O)CC[C@@H]43)[C@@H]1[C@H]1C[C@H]1[C@@]21C=CC(=O)O1 [Example 12, 17β-Hydroxy-15α,16α-methylene-19-nor-17α-pregna-4,20(Z)-dien-3-one-21-carboxylic acid γ-lactone] | 200 | 0.4 | 75.5 | – | – | – | –
12 | C[C@]12CC[C@H]3[C@@H](C=CC4=CC(=O)CC[C@@H]43)[C@@H]1[C@H]1C[C@H]1[C@@]21C=CC(=O)O1 [Example 13, 17β-Hydroxy-15α,16α-methylene-19-nor-17α-pregna-4,6,20(Z)-trien-3-one-21-carboxylic acid γ-lactone] | – | – | – | 5100 | 37.1 | – | 150
13 | C[C@@H]1CC2=CC(=O)CC[C@@H]2[C@H]2CC[C@@]3(C)[C@@H]([C@H]4C[C@H]4[C@@]34C=CC(=O)O4)[C@@H]21 [Example 14A, 17β-Hydroxy-7α-methyl-15α,16α-methylene-19-nor-17α-pregna-4,20(Z)-dien-3-one-21-carboxylic acid γ-lactone] | 74 | 16 | 86.3 | – | – | – | –
14 | CC[C@@H]1CC2=CC(=O)CC[C@@H]2[C@H]2CC[C@@]3(C)[C@@H]([C@H]4C[C@H]4[C@@]34C=CC(=O)O4)[C@H]12 [Example 15A, 17β-Hydroxy-7α-ethyl-15α,16α-methylene-19-nor-17α-pregna-4,20(Z)-dien-3-one-21-carboxylic acid γ-lactone] | 60 | 92 | 39.5 | – | – | – | –
15 | C=C[C@@H]1CC2=CC(=O)CC[C@@H]2[C@H]2CC[C@@]3(C)[C@@H]([C@H]4C[C@H]4[C@@]34C=CC(=O)O4)[C@@H]21 [Example 16A, 17β-Hydroxy-7α-vinyl-15α,16α-methylene-19-nor-17α-pregna-4;20(Z)-dien-3-one-21-carboxylic acid γ-lactone] | 39 | 140 | 59.3 | – | – | – | –
16 | C[C@]12CC[C@H]3[C@@H](CCC4=CC(=O)CC[C@@H]43)[C@@H]1[C@@H]1C[C@@H]1[C@@]21C=CC(=O)O1 [Example 19, 17β-Hydroxy-15β,16β-methylene-19-nor-17α-pregna-4,20(Z)-dien-3-one-21-carboxylic acid γ-lactone] | 52 | – | – | – | – | – | –
17 | C[C@]12CC[C@H]3[C@@H](CC4(CC4)C4=CC(=O)CC[C@@H]43)[C@@H]1[C@@H]1C[C@@H]1[C@@]21C=CC(=O)O1 [Example 22, 6,6-(1,2-Ethanediyl)-17β-hydroxy-15β,16β-methylene-19-nor-17α-pregna-4,20(Z)dien-3-one-21-carboxylic acid γ-lactone] | – | 1.1 | 126 | – | – | – | –
